Laboratory results published in US20260285872A1, “COMPOUNDS AND METHODS FOR DEGRADING GSPT1” (priority 2023, published 2026).

These compounds were tested on NCI-H1155 cells (assay: NSCLC cell viability, CellTiter-Glo, NCI-H1155 cells). Details: Homo sapiens; NCI-H1155 cells, CellTiter-Glo, 72 hours of treatment; read-out: Cell viability classification (NCI-H1155).
Type: cell-based

**Q.** With `O=C1CCC(c2nc3ccc(C(=O)N4CC5(CCC(C(F)(F)F)CC5)C4)cc3o2)C(=O)N1` (centres unmarked) [Example 259, 3-(6-(7-(trifluoromethyl)-2-azaspiro[3.5]nonane-2-carbonyl)benzo[d]oxazol-2-yl)piperidine-2,6-dione] as the compound, how does the IC50 read?
**A.** Its IC50 is > 1000 nM.

**Q.** For `O=C1CCC(N2Cc3cc(C(=O)N4Cc5cccc(OC(F)(F)F)c5C4)ccc3C2=O)C(=O)N1` (centres unmarked) [Example 151, 3-(1-oxo-5-(4-(trifluoromethoxy)isoindoline-2-carbonyl)isoindolin-2-yl)piperidine-2,6-dione], which IC50 is on record?
**A.** The IC50 was 10 to 100 nM.

**Q.** With `COc1ccc(C2=CC3(C2)CN(C(=O)c2ccc4c(c2)CN(C2CCC(=O)NC2=O)C4=O)C3)cc1` (centres unmarked) [Example 237, 3-(5-(6-(4-methoxyphenyl)-2-azaspiro[3.3]hept-5-ene-2-carbonyl)-1-oxoisoindolin-2-yl)piperidine-2,6-dione] as the compound, how does the IC50 read?
**A.** Its IC50 is > 1000 nM.

**Q.** With `C[C@H]1c2c(F)cccc2CN1C(=O)c1ccc2nc(C3CCC(=O)NC3=O)oc2c1` (stereo partly drawn) [Example 160, 3-(6-((S)-7-fluoro-1-methylisoindoline-2-carbonyl)benzo[d]oxazol-2-yl)piperidine-2,6-dione] as the compound, how does the IC50 read?
**A.** The IC50 was 100 to 1000 nM.

**Q.** For `O=C1CCC(c2nc3ccc(C(=O)N4CCc5c(Cl)cccc5C4)cc3o2)C(=O)N1` (centres unmarked) [Example 181, 3-(6-(5-chloro-1,2,3,4-tetrahydroisoquinoline-2-carbonyl)benzo[d]oxazol-2-yl)piperidine-2,6-dione], which IC50 is on record?
**A.** Its IC50 is > 1000 nM.

**Q.** How did the IC50 turn out when `C[C@@H]1c2cccc(F)c2CN1C(=O)c1ccc2c(c1)CN(C1CCC(=O)NC1=O)C2=O` (stereo partly drawn) [Example 142, 3-(5-((R)-4-fluoro-1-methylisoindoline-2-carbonyl)-1-oxoisoindolin-2-yl)piperidine-2,6-dione] was run?
**A.** Its IC50 is > 1000 nM.

**Q.** With `Cc1c(N2CCC(=O)NC2=O)ccc2ccc(C(=O)N3CCc4ccc(F)cc43)cc12` [Example 134, 1-(7-(6-fluoroindoline-1-carbonyl)-1-methylnaphthalen-2-yl)dihydropyrimidine-2,4(1H,3H)-dione] as the compound, how does the IC50 read?
**A.** The IC50 was 10 to 100 nM.

**Q.** How did the IC50 turn out when `O=C1CCC(N2Cc3cc(C(=O)N4CC5(CC(C(F)(F)F)C5)C4)c(F)cc3C2=O)C(=O)N1` (centres unmarked) [Example 183, 3-(6-fluoro-1-oxo-5-(6-(trifluoromethyl)-2-azaspiro[3.3]heptane-2-carbonyl)isoindolin-2-yl)piperidine-2,6-dione] was run?
**A.** The IC50 was 10 to 100 nM.

**Q.** `N#Cc1ccc2c(c1F)CN(C(=O)c1ccc3c(c1)CN(C1CCC(=O)NC1=O)C3=O)C2` (centres unmarked) [Example 150, 2-(2-(2,6-dioxopiperidin-3-yl)-1-oxoisoindoline-5-carbonyl)-4-fluoroisoindoline-5-carbonitrile] was tested. Which IC50 did it give?
**A.** The IC50 was 100 to 1000 nM.

**Q.** For `O=C1CCC(c2nc3ccc(C(=O)N4CCc5c(F)cc(F)cc54)cc3o2)C(=O)N1` (centres unmarked) [Example 175, 3-(6-(4,6-difluoroindoline-1-carbonyl)benzo[d]oxazol-2-yl)piperidine-2,6-dione], which IC50 is on record?
**A.** The IC50 was 100 to 1000 nM.

**Q.** `O=C1CCC(N2Cc3cc(C(=O)N4CC5(C=C(c6ccc(F)c(F)c6)C5)C4)ccc3C2=O)C(=O)N1` (centres unmarked) [Example 234, 3-(5-(6-(3,4-difluorophenyl)-2-azaspiro[3.3]hept-5-ene-2-carbonyl)-1-oxoisoindolin-2-yl)piperidine-2,6-dione] was tested. Which IC50 did it give?
**A.** Its IC50 is 10 to 100 nM.

**Q.** With `N#Cc1ccc(C2CC3(C2)CN(C(=O)c2ccc4c(c2)CN(C2CCC(=O)NC2=O)C4=O)C3)cc1` (centres unmarked) [Example 232, 4-(2-(2-(2,6-dioxopiperidin-3-yl)-1-oxoisoindoline-5-carbonyl)-2-azaspiro[3.3]heptan-6-yl)benzonitrile] as the compound, how does the IC50 read?
**A.** The IC50 was 100 to 1000 nM.

**Q.** `O=C1CCC(N2Cc3cc(C(=O)N4Cc5ccc(Cl)c(F)c5C4)ccc3C2=O)C(=O)N1` (centres unmarked) [Example 172, 3-(5-(5-chloro-4-fluoroisoindoline-2-carbonyl)-1-oxoisoindolin-2-yl)piperidine-2,6-dione] was tested. Which IC50 did it give?
**A.** Its IC50 is 10 to 100 nM.

**Q.** How did the IC50 turn out when `COC1(c2ccc(F)cc2)CC2(CN(C(=O)c3ccc4c(c3)CN(C3CCC(=O)NC3=O)C4=O)C2)C1` (centres unmarked) [Example 244, 3-(5-(6-(4-fluorophenyl)-6-methoxy-2-azaspiro[3.3]heptane-2-carbonyl)-1-oxoisoindolin-2-yl)piperidine-2,6-dione] was run?
**A.** Its IC50 is 100 to 1000 nM.
